Data on 23 compounds can be found in patent US12448388B2, “PRMT5 inhibitors and uses thereof” (Gilead Sciences, Inc., priority 2023, dated 2025).

This assay has as its system HCT116 MTAP-deleted cell lines. Briefly: Cell viability assay (CellTiter-Glo, 7 days), HCT116 MTAP-deleted. As to conditions: Homo sapiens, HCT-116; cell viability, HCT116 MTAP-deleted; class symbols; read-out: CC50. The class given is cell-based. The gist of the method: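 First, compounds are serially diluted in DMSO and dispensed into plates, which are frozen until seeding. Next, cells are added and incubated 7 days at 37 °C, 5% CO2, 90% humidity. Finally, CellTiter-Glo reagent is added and luminescence is measured to derive CC50.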

As a reminder, the CC50 is the concentration at which the toxic effect on the cells reaches its halfway point.

`CC(=O)N(C)N(Cc1ccn(-c2ccc(F)cc2F)n1)C(=O)c1cc2c(cc1F)nc(N)c1cncn12` [Fb-16, N′-acetyl-4-amino-N-((1-(2,4-difluorophenyl)-1H-pyrazol-3-yl)methyl)-7-fluoro-N′-methylimidazo[1,5-a]quinoxaline-8-carbohydrazide]: the CC50 lay in the range of 100 to 1000 nM. The figure for `CC(=O)N(C)N(Cc1ccc(C(F)(F)F)cc1Cl)C(=O)c1ccc2nc(N)c3cncn3c2c1` [Fb-17, N′-acetyl-4-amino-N-(2-chloro-4-(trifluoromethyl)benzyl)-N′-methylimidazo[1,5-a]quinoxaline-8-carbohydrazide] is below 100 nM. In the case of `[2H]C([2H])([2H])N(C(=O)c1cc2c(cc1F)nc(N)c1cncn12)[C@@H](c1ccc(C(F)(F)F)cc1F)C(F)F` [Fb-18, (S)-4-amino-N-(2,2-difluoro-1-(2-fluoro-4-(trifluoromethyl)phenyl)ethyl)-7-fluoro-N-(methyl-d3)imidazo[1,5-a]quinoxaline-8-carboxamide] it was below 100 nM. In the case of `CC1(C)CN(C(=O)c2cc3c(cc2F)nc(N)c2cncn23)CC1c1ccccc1` (centres unmarked) [Ff-2, (4-amino-7-fluoroimidazo[1,5-a]quinoxalin-8-yl)(3,3-dimethyl-4-phenylpyrrolidin-1-yl)methanone] it was 100 to 1000 nM; in that of `Nc1nc2cc(F)c(C(=O)N3CC4CC4(c4ccc(C(F)(F)F)cc4)C3)cc2n2cncc12` (centres unmarked) [Ff-3, (4-amino-7-fluoroimidazo[1,5-a]quinoxalin-8-yl)(1-(4-(trifluoromethyl)phenyl)-3-azabicyclo[3.1.0]hexan-3-yl)methanone], above 1000 nM. With `CN(C(=O)c1ccc2nc(N)c3cncn3c2c1)C1CCc2nc(Cl)sc21` (centres unmarked) [Ff-15, 4-amino-N-(2-chloro-5,6-dihydro-4H-cyclopenta[d]thiazol-6-yl)-N-methylimidazo[1,5-a]quinoxaline-8-carboxamide], the CC50 is above 1000 nM. The figure for `CN(C(=O)c1cc2c(cc1F)nc(N)c1cncn12)C1CCc2nc(Cl)sc21` (centres unmarked) [Ff-16, 4-amino-N-(2-chloro-5,6-dihydro-4H-cyclopenta[d]thiazol-6-yl)-7-fluoro-N-methylimidazo[1,5-a]quinoxaline-8-carboxamide] is 100 to 1000 nM; for `CN(Cc1ccc(F)cc1Cl)C(=O)c1ccc2nc(N)c3cncn3c2c1` [Ff-30, 4-amino-N-(2-chloro-4-fluorobenzyl)-N-methylimidazo[1,5-a]quinoxaline-8-carboxamide] it is above 1000 nM; for `CN(Cc1ccc(F)cc1Cl)C(=O)c1cc2c(cc1F)nc(N)c1cncn12` [Ff-31, 4-amino-N-(2-chloro-4-fluorobenzyl)-7-fluoro-N-methylimidazo[1,5-a]quinoxaline-8-carboxamide] it is 100 to 1000 nM. For `Nc1nc2cc(F)c(C(=O)N3CCOC[C@@H]3c3ccc(C(F)(F)F)cc3)cc2n2cncc12` [Ff-38, (S)-(4-amino-7-fluoroimidazo[1,5-a]quinoxalin-8-yl)(3-(4-(trifluoromethyl)phenyl)morpholino)methanone], the CC50 is below 100 nM. In the case of `CN(C(=O)c1cc2c(cc1F)nc(N)c1cncn12)C1COCc2cc(C(F)(F)F)ccc21` (centres unmarked) [Ff-39, 4-amino-7-fluoro-N-methyl-N-(7-(trifluoromethyl)isochroman-4-yl)imidazo[1,5-a]quinoxaline-8-carboxamide] it was below 100 nM; in that of `CN(C(=O)c1cc2c(cc1F)nc(N)c1cncn12)C1CCOc2cc(C(F)(F)F)ccc21` (centres unmarked) [Ff-40, 4-amino-7-fluoro-N-methyl-N-(7-(trifluoromethyl)chroman-4-yl)imidazo[1,5-a]quinoxaline-8-carboxamide], 100 to 1000 nM. In the case of `Nc1nc2cc(F)c(C(=O)N3CCCC4OCc5cc(C(F)(F)F)ccc5C43)cc2n2cncc12` (centres unmarked) [Ff-43, (4-amino-7-fluoroimidazo[1,5-a]quinoxalin-8-yl)(8-(trifluoromethyl)-2,3,4,4a,6,10b-hexahydro-1H-isochromeno[4,3-b]pyridin-1-yl)methanone] it was below 100 nM; in that of `Cn1cc(N(Cc2ccc(C(F)(F)F)cc2F)C(=O)c2cc3c(cc2F)nc(N)c2cncn23)cn1` [Ff-45, 4-amino-7-fluoro-N-(2-fluoro-4-(trifluoromethyl)benzyl)-N-(1-methyl-1H-pyrazol-4-yl)imidazo[1,5-a]quinoxaline-8-carboxamide], below 100 nM; in that of `Cn1cc(N(Cc2ccc(C(F)(F)F)cn2)C(=O)c2cc3c(cc2F)nc(N)c2cncn23)cn1` [Ff-46, 4-amino-7-fluoro-N-(1-methyl-1H-pyrazol-4-yl)-N-((5-(trifluoromethyl)pyridin-2-yl)methyl)imidazo[1,5-a]quinoxaline-8-carboxamide], below 100 nM. In the case of `[2H]C([2H])([2H])N(C(=O)c1cc2c(cc1F)nc(N)c1cncn12)[C@@H]1COc2cc(C(F)(F)F)ccc21` [Ff-47, 4-amino-7-fluoro-N-(methyl-d3)-N-(6-(trifluoromethyl)-2,3-dihydrobenzofuran-3-yl)imidazo[1,5-a]quinoxaline-8-carboxamide] it was below 100 nM; in that of `CN(Cc1nc(-c2cnn(C(F)F)c2)cs1)C(=O)c1cc2c(cc1F)nc(N)c1cncn12` [Ff-48, 4-amino-N-((4-(1-(difluoromethyl)-1H-pyrazol-4-yl)thiazol-2-yl)methyl)-7-fluoro-N-methylimidazo[1,5-a]quinoxaline-8-carboxamide], 100 to 1000 nM; in that of `Cc1ncc2c(N)nc3ccc(C(=O)N(C)Cc4cc5cc(C(F)(F)F)ccn5n4)cc3n12` [Ff-49, 4-amino-N,1-dimethyl-N-((5-(trifluoromethyl)pyrazolo[1,5-a]pyridin-2-yl)methyl)imidazo[1,5-a]quinoxaline-8-carboxamide], above 1000 nM. With `CC(C)N(Cc1ccc(-c2cnn(C(F)(F)F)c2)cc1F)C(=O)c1ccc2nc(N)c3cncn3c2c1` [Ff-50, 4-amino-N-(2-fluoro-4-(1-(trifluoromethyl)-1H-pyrazol-4-yl)benzyl)-N-isopropylimidazo[1,5-a]quinoxaline-8-carboxamide], the CC50 was below 100 nM. With `CC(C)N(Cc1ccc(-c2cnn(C(F)F)c2)cc1F)C(=O)c1ccc2nc(N)c3cncn3c2c1` [Ff-51, 4-amino-N-(4-(1-(difluoromethyl)-1H-pyrazol-4-yl)-2-fluorobenzyl)-N-isopropylimidazo[1,5-a]quinoxaline-8-carboxamide], the CC50 fell in the range of 100 to 1000 nM. In the case of `Nc1nc2cc(F)c(C(=O)N(Cc3ccc4ncsc4c3)C34CC(C3)C4)cc2n2cncc12` [Ff-52, 4-amino-N-(benzo[d]thiazol-6-ylmethyl)-N-(bicyclo[1.1.1]pentan-1-yl)-7-fluoroimidazo[1,5-a]quinoxaline-8-carboxamide] it was 100 to 1000 nM; in that of `Nc1nc2cc(F)c(C(=O)N(Cc3ccc(-n4ccnc4)cc3Cl)C34CC(C3)C4)cc2n2cncc12` [Ff-53, 4-amino-N-(bicyclo[1.1.1]pentan-1-yl)-N-(2-chloro-4-(1H-imidazol-1-yl)benzyl)-7-fluoroimidazo[1,5-a]quinoxaline-8-carboxamide], below 100 nM. The figure for `CC(C)N(Cc1ccc(Oc2ccccc2)cc1)C(=O)c1ccc2nc(N)c3cncn3c2c1` [Ff-57, 4-amino-N-isopropyl-N-(4-phenoxybenzyl)imidazo[1,5-a]quinoxaline-8-carboxamide] is 100 to 1000 nM.
